As a reminder, the IC50 is the concentration that gives 50% inhibition.

Molecules are shown by their SMILES. Like-named read-outs stand apart in the source and are kept apart here.

IC50 data for 21 molecules are collected here from patent publication US20250346593A1, “IMIDAZO(1,2-1)PYRIDINE DERIVATIVES AS RIPK2 INHIBITORS” (Interline Therapeutics, Inc., priority 2022, published 2025).

Assay [1] relates to NF-κB pathway (SEAP) in THP1-Dual cells. Briefly: THP-1 Dual cell SEAP assay (L18-MDP stimulated). Format: cell-based. Conditions: read-out: NFkB THP1 IC50.
Assay [2] has as its target GST-RIPK2 fusion protein (human RIPK2 amino acids 1-310) (Homo sapiens (Human), UniProt O43353). Briefly: RIPK2 binding competition assay (TR-FRET, Tracer 199). On the technique in general: Time-resolved FRET reads energy transfer from a long-lived donor to a nearby acceptor.
Where [3] appears, read: read-out: RIPK2 IC50, RIPK2 binding competition assay.

Chain of GST-RIPK2 fusion protein (human RIPK2 amino acids 1-310) (O43353 1-310): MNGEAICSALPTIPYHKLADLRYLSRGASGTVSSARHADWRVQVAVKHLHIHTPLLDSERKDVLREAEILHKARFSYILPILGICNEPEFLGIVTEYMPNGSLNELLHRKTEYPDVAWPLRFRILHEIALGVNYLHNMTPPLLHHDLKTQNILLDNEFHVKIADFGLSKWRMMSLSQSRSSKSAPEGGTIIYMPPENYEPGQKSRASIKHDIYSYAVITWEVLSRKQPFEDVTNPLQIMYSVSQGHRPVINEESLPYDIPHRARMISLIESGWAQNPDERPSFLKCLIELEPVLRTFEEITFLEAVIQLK

For `COc1cc2ncc(-c3cc(F)nc(NC[C@@H](O)CO)c3)n2cc1S(=O)(=O)C(C)(C)C` [Example 195, (R)-3-((4-(6-(tert-butylsulfonyl)-7-methoxyimidazo[1,2-a]pyridin-3-yl)-6-fluoropyridin-2-yl)amino)propane-1,2-diol], the IC50 in assay [1] (Homo sapiens, THP1-Dual) is below 50 nM; in assay [2] (setting [3]), below 1 nM.

Take `COc1cc2ncc(-c3cc(F)nc(NCc4ccn(C)c(=O)c4)c3)n2cc1S(=O)(=O)C(C)(C)C` [Example 196, 4-(((4-(6-(tert-butylsulfonyl)-7-methoxyimidazo[1,2-a]pyridin-3-yl)-6-fluoropyridin-2-yl)amino)methyl)-1-methylpyridin-2(1H)-one]: the IC50 was below 50 nM in assay [1] (Homo sapiens, THP1-Dual) and 1 to 2.5 nM in assay [2].

Turning to `COc1cc2ncc(-c3cc(F)nc(NCCC4(O)CC4)c3)n2cc1S(=O)(=O)C(C)(C)C` [Example 198, 1-(2-((4-(6-(tert-butylsulfonyl)-7-methoxyimidazo[1,2-a]pyridin-3-yl)-6-fluoropyridin-2-yl)amino)ethyl)cyclo-propan-1-ol], the IC50 in assay [1] (Homo sapiens, THP1-Dual) was below 50 nM; in assay [2] (setting [3]), below 1 nM.

Consider `COc1cc2ncc(-c3cc(F)nc(NCc4cc[nH]c(=O)c4)c3)n2cc1S(=O)(=O)C(C)(C)C` [Example 199, 4-(((4-(6-(tert-butylsulfonyl)-7-methoxyimidazo[1,2-a]pyridin-3-yl)-6-fluoropyridin-2-yl)amino)methyl) pyridin-2(1H)-one], for which the IC50 in assay [1] (Homo sapiens, THP1-Dual) was 50 to 250 nM; in assay [2], 1 to 2.5 nM.

For the molecule `COc1cc2ncc(-c3cc(F)nc(NCC4CCN(C)C(=O)C4)c3)n2cc1S(=O)(=O)C(C)(C)C` (stereo not drawn) [Example 200, 4-(((4-(6-(tert-butylsulfonyl)-7-methoxyimidazo[1,2-a]pyridin-3-yl)-6-fluoropyridin-2-yl)amino)methyl)-1-methylpiperidin-2-one], the IC50 in assay [1] (Homo sapiens, THP1-Dual) is below 50 nM; in assay [2] it was 1 to 2.5 nM.

On to `COc1cc2ncc(-c3cc(F)nc(NCC4(CO)CC4)c3)n2cc1S(=O)(=O)C(C)(C)C` [Example 201, (1-(((4-(6-(tert-butylsulfonyl)-7-methoxyimidazo[1,2-a]pyridin-3-yl)-6-fluoropyridin-2-yl)amino)methyl)cyclo-propyl)methanol], for which the IC50 was below 50 nM in assay [1] (Homo sapiens, THP1-Dual) and 1 to 2.5 nM in assay [2].

Turning to `COc1cc2ncc(-c3cc(F)nc(NCCO)c3)n2cc1S(=O)(=O)C(C)(C)C` [Example 202, 2-((4-(6-(tert-butylsulfonyl)-7-methoxyimidazo[1,2-a]pyridin-3-yl)-6-fluoropyridin-2-yl)amino)ethan-1-ol], the half-inhibitory concentration (IC50) in assay [1] (Homo sapiens, THP1-Dual) is below 50 nM; in assay [2] it was 1 to 2.5 nM.

With `COc1cc2ncc(-c3cc(F)nc(NC[C@H](O)CO)c3)n2cc1S(=O)(=O)C(C)(C)C` [Example 203, (S)-3-((4-(6-(tert-butylsulfonyl)-7-methoxyimidazo[1,2-a]pyridin-3-yl)-6-fluoropyridin-2-yl)amino)propane-1,2-diol], the IC50 in assay [1] (Homo sapiens, THP1-Dual) was in the range of 50 to 250 nM; in assay [2] it was 1 to 2.5 nM.

For `COc1cc2ncc(-c3cc(F)nc(N[C@H]4CC[C@@H](O)CC4)c3)n2cc1S(=O)(=O)C(C)(C)C` [Example 206, (1s,4s)-4-((4-(6-(tert-butylsulfonyl)-7-methoxyimidazo[1,2-a]pyridin-3-yl)-6-fluoropyridin-2-yl)amino)cyclohexan-1-ol], the figures for the IC50 in assay [1] and in assay [2] were below 50 nM and 1 to 2.5 nM, respectively.

As to `COc1cc2ncc(-c3cc(F)nc(N4CCC(O)CC4)c3)n2cc1S(=O)(=O)C(C)(C)C` [Example 207, 1-(4-(6-(tert-butylsulfonyl)-7-methoxyimidazo[1,2-a]pyridin-3-yl)-6-fluoropyridin-2-yl)piperidin-4-ol], the IC50 is below 50 nM in assay [1] (Homo sapiens, THP1-Dual) and 1 to 2.5 nM in assay [2].

With `COc1cc2ncc(-c3cc(F)nc(NCC4(O)CC4)c3)n2cc1S(=O)(=O)C(C)(C)C` [Example 208, 1-(((4-(6-(tert-butylsulfonyl)-7-methoxyimidazo[1,2-a]pyridin-3-yl)-6-fluoropyridin-2-yl)amino)methyl) cyclopropan-1-ol], the IC50 in assay [1] (Homo sapiens, THP1-Dual) was below 50 nM; in assay [2] it was 1 to 2.5 nM.

For the molecule `COc1cc2ncc(-c3cc(F)nc(N(C)CCCO)c3)n2cc1S(=O)(=O)C(C)(C)C` [Example 209, 3-((4-(6-(tert-butylsulfonyl)-7-methoxyimidazo[1,2-a]pyridin-3-yl)-6-fluoropyridin-2-yl)(methyl)amino) propan-1-ol], the IC50 in assay [1] (Homo sapiens, THP1-Dual) is 50 to 250 nM; in assay [2] it was 1 to 2.5 nM.

Consider `COc1cc2ncc(-c3cc(F)nc(NCCN4CCCC4=O)c3)n2cc1S(=O)(=O)C(C)(C)C` [Example 210, 1-(2-((4-(6-(tert-butylsulfonyl)-7-methoxyimidazo[1,2-a]pyridin-3-yl)-6-fluoropyridin-2-yl)amino)ethyl) pyrrolidin-2-one], for which the IC50 in assay [1] (Homo sapiens, THP1-Dual) lay in the range of 50 to 250 nM; in assay [2], 1 to 2.5 nM.

On to `COc1cc2ncc(-c3cc(F)nc(N4CCOCC4)c3)n2cc1S(=O)(=O)C(C)(C)C` [Example 211, 4-(4-(6-(tert-butylsulfonyl)-7-methoxyimidazo[1,2-a]pyridin-3-yl)-6-fluoropyridin-2-yl)morpholine], for which the IC50 in assay [1] (Homo sapiens, THP1-Dual) lay within 250 to 1000 nM; in assay [2], 2.5 to 20 nM.

For `COc1cc2ncc(-c3cc(F)nc(NC4CCOCC4)c3)n2cc1S(=O)(=O)C(C)(C)C` [Example 212, 4-(6-(tert-butylsulfonyl)-7-methoxyimidazo[1,2-a]pyridin-3-yl)-6-fluoro-N-(tetrahydro-2H-pyran-4-yl)pyridin-2-amine], the IC50 in assay [1] (Homo sapiens, THP1-Dual) is above 1000 nM; in assay [2], 2.5 to 20 nM.

Turning to `COc1cc2ncc(-c3cc(F)nc(NCCC4(O)COC4)c3)n2cc1S(=O)(=O)C(C)(C)C` [Example 213, 3-(2-((4-(6-(tert-butylsulfonyl)-7-methoxyimidazo[1,2-a]pyridin-3-yl)-6-fluoropyridin-2-yl)amino)ethyl)oxetan-3-ol], the 50% inhibitory concentration (IC50) in assay [1] (Homo sapiens, THP1-Dual) fell in the range of 250 to 1000 nM; in assay [2] it was 2.5 to 20 nM.

With `COc1cc2ncc(-c3cc(F)c(C#N)c(NCCCO)c3)n2cc1S(=O)(=O)C(C)(C)C` [Example 214, 4-(6-(tert-butylsulfonyl)-7-methoxyimidazo[1,2-a]pyridin-3-yl)-2-fluoro-6-((3-hydroxypropyl)amino) benzonitrile], the IC50 lay in the range of 50 to 250 nM in assay [1] (Homo sapiens, THP1-Dual) and 2.5 to 20 nM in assay [2].

On to `COc1cc2ncc(-c3cc(N)nc(F)c3)n2cc1S(=O)(=O)C(C)(C)C` [Example 215, 4-(6-(tert-butylsulfonyl)-7-methoxyimidazo[1,2-a]pyridin-3-yl)-6-fluoropyridin-2-amine], for which the half-maximal inhibitory concentration (IC50) was below 50 nM in assay [1] (Homo sapiens, THP1-Dual) and below 1 nM in assay [2] (setting [3]).

In the case of `COc1ccc(CNc2cc(-c3cnc4cc(OC)c(S(=O)(=O)C(C)(C)C)cn34)cc(F)n2)cc1` [Example 216], the IC50 is 50 to 250 nM in assay [1] (Homo sapiens, THP1-Dual) and below 1 nM in assay [2] (setting [3]).

As for `COc1cc2ncc(-c3cc(F)nc(N[C@H](C)CO)c3)n2cc1S(=O)(=O)C(C)(C)C` [Example 221, (2R)-2-({6-fluoro-4-[7-methoxy-6-(2-methylpropane-2-sulfonyl)imidazo[1,2-a]pyridin-3-yl]pyridin-2-yl}amino)propan-1-ol], the IC50 in assay [1] (Homo sapiens, THP1-Dual) was below 50 nM; in assay [2] it was 1 to 2.5 nM.

For the molecule `COc1cc2ncc(-c3cc(F)nc(N[C@@H](C)CO)c3)n2cc1S(=O)(=O)C(C)(C)C` [Example 222, (2S)-2-({6-fluoro-4-[7-methoxy-6-(2-methylpropane-2-sulfonyl)imidazo[1,2-a]pyridin-3-yl]pyridin-2-yl}amino)propan-1-ol], the IC50 is below 50 nM in assay [1] (Homo sapiens, THP1-Dual) and 1 to 2.5 nM in assay [2].
